From ChEMBL document CHEMBL1201861, “Genomics of Drug Sensitity in Cancer screening data, Wellcome Trust Sanger Institute”

How the values were obtained:
Experiment in all cases: cells
ASPC1 = assay type: functional, cell-based; settings: Homo sapiens;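 also: growth inhibition of AsPC-1 cells, read out with a cell viability assay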
Description: SANGER: Inhibition of human AsPC-1 cell growth in a cell viability assay.

ChaGo-K-1 = assay type: functional, cell-based; settings: Homo sapiens;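 also: growth inhibition of ChaGo-K-1 cells, read out with a cell viability assay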
Description: SANGER: Inhibition of human ChaGo-K-1 cell growth in a cell viability assay.

LN-405 = assay type: functional, cell-based; settings: Homo sapiens
Description: SANGER: Inhibition of human LN-405 cell growth in a cell viability assay.

CWR22R = assay type: functional, cell-based; settings: Homo sapiens, 22Rv1;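 also: growth inhibition of 22Rv1 cells, read out with a cell viability assay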
Description: SANGER: Inhibition of human 22RV1 cell growth in a cell viability assay.

BCPAP = assay type: functional, cell-based; settings: Homo sapiens;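 also: growth inhibition of BCPAP cells, read out in a cell viability assay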
Description: SANGER: Inhibition of human BCPAP cell growth in a cell viability assay.

BEN = assay type: functional, cell-based; settings: Homo sapiens;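 also: growth inhibition of the BEN cell line, read out with a cell viability assay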
Description: SANGER: Inhibition of human BEN cell growth in a cell viability assay.

NCI-H630 = assay type: functional, cell-based; settings: Homo sapiens;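 also: growth inhibition of NCI-H630 cells, read out with a cell viability assay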
Description: SANGER: Inhibition of human NCI-H630 cell growth in a cell viability assay.

SW756 = assay type: functional, cell-based; settings: Homo sapiens;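 also: growth inhibition of human SW756 cells, read out with a cell viability assay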
Description: SANGER: Inhibition of human SW756 cell growth in a cell viability assay.

KYSE-270 = assay type: functional, cell-based; settings: Homo sapiens;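 also: cell growth inhibition measured with a viability assay in the human KYSE-270 line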
Description: SANGER: Inhibition of human KYSE-270 cell growth in a cell viability assay.

SK-HEP1 = assay type: functional, cell-based, SK-HEP-1; settings: Homo sapiens;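 also: cell viability readout used to quantify reduction in proliferation of human SK-HEP-1 cells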
Description: SANGER: Inhibition of human SK-HEP-1 cell growth in a cell viability assay.

NCI-H358 = assay type: functional, cell-based; settings: Homo sapiens;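 also: growth inhibition of NCI-H358 human cells, read out with a cell viability assay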
Description: SANGER: Inhibition of human NCI-H358 cell growth in a cell viability assay.

JEG-3 = assay type: functional, cell-based; settings: Homo sapiens;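 also: growth inhibition of human JEG-3 cells, read out with a cell viability assay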
Description: SANGER: Inhibition of human JEG-3 cell growth in a cell viability assay.

NB17 = assay type: functional, cell-based, Homo sapiens; settings: Homo sapiens, NB17;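 also: growth inhibition of NB17 cells, read out with a cell viability assay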
Description: SANGER: Inhibition of human NB17 cell growth in a cell viability assay.

A673 = assay type: functional, cell-based; settings: Homo sapiens;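 also: growth inhibition of human A673 cells, read out through a cell viability assay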
Description: SANGER: Inhibition of human A673 cell growth in a cell viability assay.

KOSC-2 = assay type: functional, cell-based; settings: Homo sapiens;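 also: growth inhibition of KOSC-2 cells, read out by a cell viability assay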
Description: SANGER: Inhibition of human KOSC-2 cell growth in a cell viability assay.

UO-31 = assay type: functional, cell-based; settings: Homo sapiens;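 also: cell viability assay measuring inhibition of cell growth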
Description: SANGER: Inhibition of human U031 cell growth in a cell viability assay.

8305C = assay type: functional, cell-based; settings: Homo sapiens
Description: SANGER: Inhibition of human 8305C cell growth in a cell viability assay.

SW1463 = assay type: functional, cell-based; settings: Homo sapiens;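 also: growth inhibition of SW1463 cells, determined with a cell viability assay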
Description: SANGER: Inhibition of human SW1463 cell growth in a cell viability assay.

Calu-3 = assay type: functional, cell-based; settings: Homo sapiens;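 also: growth inhibition of human Calu-3 cells, determined with a cell viability assay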
Description: SANGER: Inhibition of human Calu-3 cell growth in a cell viability assay.

RVH-421 = assay type: functional, cell-based; settings: Homo sapiens
Description: SANGER: Inhibition of human RVH-421 cell growth in a cell viability assay.

MKN-7 = assay type: functional, cell-based; settings: Homo sapiens;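 also: growth inhibition of MKN-7 cells, read out with a cell viability assay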
Description: SANGER: Inhibition of human MKN7 cell growth in a cell viability assay.

SN12C = assay type: functional, cell-based; settings: Homo sapiens;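 also: growth inhibition of human SN12C cells, measured by a cell viability assay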
Description: SANGER: Inhibition of human SN12C cell growth in a cell viability assay.

M14 = assay type: functional, cell-based; settings: Homo sapiens;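 also: growth inhibition of M14 cells, read out with a cell viability assay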
Description: SANGER: Inhibition of human M14 cell growth in a cell viability assay.

OVCAR-8 = assay type: functional, cell-based; settings: Homo sapiens;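 also: growth inhibition of human OVCAR-8 cells, read out by a cell viability assay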
Description: SANGER: Inhibition of human OVCAR-8 cell growth in a cell viability assay.

SAOS-2 = assay type: functional, cell-based; settings: Homo sapiens;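 also: growth inhibition of human Saos-2 cells determined by a cell viability assay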
Description: SANGER: Inhibition of human Saos-2 cell growth in a cell viability assay.

RPMI-7951 = assay type: functional, cell-based; settings: Homo sapiens
Description: SANGER: Inhibition of human RPMI-7951 cell growth in a cell viability assay.

LCLC-103H cell line = assay type: functional, cell-based; settings: Homo sapiens
Description: SANGER: Inhibition of human LCLC-103H cell growth in a cell viability assay.

SW837 = assay type: functional, cell-based; settings: Homo sapiens;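 also: growth inhibition of SW837 cells, determined with a cell viability assay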
Description: SANGER: Inhibition of human SW837 cell growth in a cell viability assay.

SW1417 = assay type: functional, cell-based; settings: Homo sapiens;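 also: growth inhibition of human SW1417 cells, read out with a cell viability assay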
Description: SANGER: Inhibition of human SW1417 cell growth in a cell viability assay.

NCI-H2052 = assay type: functional, cell-based; settings: Homo sapiens;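 also: growth inhibition of NCI-H2052 cells, read out with a cell viability assay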
Description: SANGER: Inhibition of human NCI-H2052 cell growth in a cell viability assay.

SW13 = assay type: functional, cell-based; settings: Homo sapiens;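 also: IC50 is inhibition of SW13 cell growth, read out with a cell viability assay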
Description: SANGER: Inhibition of human SW13 cell growth in a cell viability assay.

CAL-27 = assay type: functional, cell-based; settings: Homo sapiens;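 also: Viability-based readout, IC50 reflecting inhibition of CAL-27 cell growth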
Description: SANGER: Inhibition of human CAL-27 cell growth in a cell viability assay.

NCI-H661 = assay type: functional, cell-based; settings: Homo sapiens;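 also: cell viability assay read-out, IC50 being the concentration that inhibits growth of the cells by half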
Description: SANGER: Inhibition of human NCI-H661 cell growth in a cell viability assay.

PANC-08-13 = assay type: functional, cell-based; settings: Homo sapiens;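 also: cell growth inhibition, measured with a cell viability assay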
Description: SANGER: Inhibition of human PANC-08-13 cell growth in a cell viability assay.

HT1197 = assay type: functional, cell-based, HT-1197; settings: Homo sapiens
Description: SANGER: Inhibition of human HT-1197 cell growth in a cell viability assay.

HN = assay type: functional, cell-based; settings: Homo sapiens
Description: SANGER: Inhibition of human HN cell growth in a cell viability assay.

ESS-1 = assay type: functional, cell-based; settings: Homo sapiens;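 also: growth inhibition of human ESS-1 cells, read out by a cell viability assay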
Description: SANGER: Inhibition of human ESS-1 cell growth in a cell viability assay.

MeWo = assay type: functional, cell-based; settings: Homo sapiens;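 also: growth inhibition of MeWo cells, determined by a cell viability readout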
Description: SANGER: Inhibition of human Mewo cell growth in a cell viability assay.

EW-22 = assay type: functional, cell-based; settings: Homo sapiens;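 also: growth inhibition of the EW-22 cell line, measured with a cell viability readout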
Description: SANGER: Inhibition of human EW-22 cell growth in a cell viability assay.

HuP-T3 = assay type: functional, cell-based; settings: Homo sapiens;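 also: HuP-T3 cell growth inhibition, read out with a cell viability assay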
Description: SANGER: Inhibition of human HuP-T3 cell growth in a cell viability assay.

T47D = assay type: functional, cell-based; settings: Homo sapiens;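 also: growth inhibition of human T47D cells, measured with a cell viability assay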
Description: SANGER: Inhibition of human T47D cell growth in a cell viability assay.

Daoy = assay type: functional, cell-based; settings: Homo sapiens;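 also: daoy cell growth inhibition, read out as cell viability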
Description: SANGER: Inhibition of human Daoy cell growth in a cell viability assay.

SIMA = assay type: functional, cell-based, Homo sapiens; settings: Homo sapiens, SIMA;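 also: growth inhibition of SIMA cells, measured with a cell viability readout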
Description: SANGER: Inhibition of human SIMA cell growth in a cell viability assay.

TE-441-T = assay type: functional, cell-based, Homo sapiens; settings: Homo sapiens, TE-441-T
Description: SANGER: Inhibition of human TE-441-T cell growth in a cell viability assay.

D-542MG = assay type: functional, cell-based; settings: Homo sapiens
Description: SANGER: Inhibition of human D-542MG cell growth in a cell viability assay.

Daudi = assay type: functional, cell-based, Homo sapiens; settings: Homo sapiens, Daudi;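 also: growth inhibition of Daudi cells, read out by a viability assay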
Description: SANGER: Inhibition of human Daudi cell growth in a cell viability assay.

MRK-nu-1 = assay type: functional, cell-based, Homo sapiens; settings: Homo sapiens, MRK-nu-1;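 also: cell viability assay measuring growth suppression of human MRK-nu-1 cells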
Description: SANGER: Inhibition of human MRK-nu-1 cell growth in a cell viability assay.

REH = assay type: functional, cell-based, Homo sapiens; settings: Homo sapiens, REH;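 also: growth inhibition of REH cells determined with a cell viability read-out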
Description: SANGER: Inhibition of human REH cell growth in a cell viability assay.

LU-165 = assay type: functional, cell-based, Homo sapiens; settings: Homo sapiens, LU-165
Description: SANGER: Inhibition of human LU-165 cell growth in a cell viability assay.

NCI-H510A = assay type: functional, cell-based, Homo sapiens; settings: Homo sapiens, NCI-H510A;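 also: growth inhibition of NCI-H510A cells, read out with a cell viability assay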
Description: SANGER: Inhibition of human NCI-H510A cell growth in a cell viability assay.

SCC-3 = assay type: functional, cell-based, Homo sapiens; settings: Homo sapiens, SCC-3;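 also: cell viability assay measuring inhibition of SCC-3 cell growth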
Description: SANGER: Inhibition of human SCC-3 cell growth in a cell viability assay.

NCI-H1882 = assay type: functional, cell-based, Homo sapiens; settings: Homo sapiens, NCI-H1882;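 also: growth inhibition of the cell line, determined with a viability assay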
Description: SANGER: Inhibition of human NCI-H1882 cell growth in a cell viability assay.

GDM-1 = assay type: functional, cell-based, Homo sapiens; settings: Homo sapiens, GDM-1; read-out: IC50;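 also: cell viability readout used to measure growth inhibition of human GDM-1 cells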
Description: SANGER: Inhibition of human GDM-1 cell growth in a cell viability assay.

BC-3 = assay type: functional, cell-based, Homo sapiens; settings: Homo sapiens, BC-3;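 also: cell viability assay measuring growth inhibition of human BC-3 cells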
Description: SANGER: Inhibition of human BC-3 cell growth in a cell viability assay.

CAL-148 = assay type: functional, cell-based, Homo sapiens; settings: Homo sapiens, CAL-148
Description: SANGER: Inhibition of human CAL-148 cell growth in a cell viability assay.

LB647-SCLC = assay type: functional, cell-based, Homo sapiens; settings: Homo sapiens, LB647-SCLC;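 also: cell growth inhibition, read out by a viability assay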
Description: SANGER: Inhibition of human LB647-SCLC cell growth in a cell viability assay.

CA46 = assay type: functional, cell-based, Homo sapiens; settings: Homo sapiens, CA46;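 also: growth inhibition of human CA46 cells, read out by a cell viability assay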
Description: SANGER: Inhibition of human CA46 cell growth in a cell viability assay.

SIG-M5 = assay type: functional, cell-based, Homo sapiens; settings: Homo sapiens, SIG-M5;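 also: cell viability assay read-out, measuring how strongly growth of cultured human SIG-M5 cells is inhibited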
Description: SANGER: Inhibition of human SIG-M5 cell growth in a cell viability assay.

Measured: IC50

CS(=O)(=O)N1CCN(Cc2cc3nc(-c4cccc5[nH]ncc45)nc(N4CCOCC4)c3s2)CC1 [PICTILISIB]
1.3 µM: KYSE-270
3.07 µM: HN
3.71 µM: Calu-3
2.46 µM: CWR22R
1.33 µM: SAOS-2
3.42 µM: MeWo
2.71 µM: MKN-7
3.31 µM: M14
> 4 µM: ASPC1 | ChaGo-K-1 | LN-405 | BCPAP | BEN | NCI-H630 | SW756 | SK-HEP1 | NCI-H358 | JEG-3 | NB17 | A673 | KOSC-2 | UO-31 | 8305C | SW1463 | RVH-421 | SN12C | OVCAR-8 | RPMI-7951 | LCLC-103H cell line | SW837 | SW1417 | NCI-H2052 | SW13 | CAL-27 | NCI-H661 | PANC-08-13 | HT1197 | ESS-1 | HuP-T3 | Daoy
0.598 µM: T47D
2.25 µM: EW-22

CO[C@@H]1[C@H](N(C)C(=O)c2ccccc2)C[C@H]2O[C@]1(C)n1c3ccccc3c3c4c(c5c6ccccc6n2c5c31)C(=O)NC4 [MIDOSTAURIN]
0.168 µM: KYSE-270
> 0.512 µM: BEN | NCI-H630 | KOSC-2 | 8305C | NCI-H2052 | HuP-T3 | T47D

CC(C)C[C@H](NC(=O)[C@H](Cc1ccccc1)NC(=O)c1cnccn1)B(O)O [BORTEZOMIB]
> 0.02 µM: SIMA | TE-441-T | MRK-nu-1 | REH | LU-165 | NCI-H510A | CAL-148 | CA46 | SIG-M5 | EW-22
0.00677 µM: GDM-1
0.0012 µM: NCI-H1882
0.00422 µM: LB647-SCLC
0.000329 µM: D-542MG
0.00661 µM: BC-3
0.00237 µM: SCC-3
0.00122 µM: Daudi
0.00204 µM: NB17
